What all share (format): biochemical
In assay [1] the target is T1, MLK1 (Homo sapiens, UniProt P80192).
T1 construct: 1 μg/ml of baculoviral GST-MLK1KD; GST (N); made in house
In words: Inhibition of Mixed Lineage Kinase-1 (MLK1) activity. The conditions noted are these: 60 μM ATP; for IC50: values without % sign; for inhibition at 0.1 µM: 100 nM compound. The method, then: The kinase activity of MLK1 was assessed using the Millipore Multiscreen TCA “in-plate” format as described for protein kinase C (Pitt & Lee, J. Biomol. Screening, 1: 47-51, 1996). Briefly, each 50-μl assay mixture contained 20 mM Hepes, pH 7.2, 5 mM EGTA, 15 mM MgCl2, 25 mM β-glycerophosphate, 60 μM ATP, 0.25 μCi [γ-^32P]ATP, 0.1% BSA, 500 μ/ml myelin basic protein (UBI #13-104), 2% DMSO, […], and 1 μg/ml of baculoviral GST-MLK1KD. Samples were incubated for 15 min at 37° C. The reaction was stopped by adding ice cold 50% TCA and the proteins were allowed to precipitate for 30 min at 4° C. The plates were then washed with ice cold 25% TCA. Supermix scintillation cocktail was added, and the plates were allowed to equilibrate for 1-2 hours prior to counting using the Wallac MicroBeta 1450 PLUS scintillation counter.

The target of assay [2] is T2, VEGF receptor (human flk-1, KDR, VEGFR2) kinase domain (Homo sapiens, UniProt P35968).
T2 construct: VEGF receptor (human flk-1, KDR, VEGFR2) kinase domain; made in house
T2 sequence (P35968 834-1162 limits assumed): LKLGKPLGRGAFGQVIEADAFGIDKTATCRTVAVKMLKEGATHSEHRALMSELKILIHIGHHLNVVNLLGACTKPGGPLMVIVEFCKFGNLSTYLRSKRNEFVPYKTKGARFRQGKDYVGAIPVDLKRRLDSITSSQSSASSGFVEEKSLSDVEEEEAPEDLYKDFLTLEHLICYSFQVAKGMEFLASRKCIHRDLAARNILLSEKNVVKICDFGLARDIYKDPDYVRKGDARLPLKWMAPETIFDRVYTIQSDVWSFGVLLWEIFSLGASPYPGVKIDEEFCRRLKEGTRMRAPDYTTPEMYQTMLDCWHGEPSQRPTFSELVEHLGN
In words: Inhibition of VEGF receptor kinase activity (ELISA). The conditions noted are these: 40 μM ATP; for IC50: values without % sign; for inhibition at 0.3 µM: 300 nM compound, read-out: VEGFR2 % inh. @ 300 nM. As to the method:
Fused pyrrolocarbazole compounds were examined for their inhibitory effects on the kinase activity of baculovirus-expressed VEGF receptor (human flk-1, KDR, VEGFR2) kinase domain using the procedure described for the trkA kinase ELISA assay described below. The kinase reaction mixture, consisting of 50 mM Hepes, pH 7.4, 40 μM ATP, 10 mM MnCl2, 0.1% BSA, 2% DMSO, and various concentrations of inhibitor, was transferred to PLC-γ/GST-coated plates. VEGFR kinase was added and the reaction was allowed to proceed for 15 min. at 37° C. Detection of phosphorylated product was accomplished by addition of anti-phosphotyrosine antibody (UBI). A secondary enzyme-conjugated antibody was delivered to capture the antibody-phosphorylated PLC-γ/GST complex. The activity of the bound enzyme was measured via an amplified detection system (Gibco-BRL). Inhibition data were analyzed using the sigmoidal dose-response (variable slope) equation in GraphPad Prism.
Selected isomeric fused pyrrolocarbazole and isoindolone compounds can be tested for their ability to inhibit the kinase activity of baculovirus-expressed human trkA cytoplasmic domain using an ELISA-based assay as previously described (Angeles et al., Anal. Biochem. 236: 49-55, 1996). Briefly, the 96-well microtiter plate is coated with substrate solution (recombinant human phospholipase C-γl/glutathione S-transferase fusion protein (Rotin et al., EMBO J., 11: 559-567, 1992). Inhibition studies are performed in 100 μl assay mixtures containing 50 mM Hepes, pH 7.4, 40 μM ATP, 10 mM MnCl2, 0.1% BSA, 2% DMSO, and various concentrations of inhibitor. The reaction is initiated by addition of trkA kinase and allowed to proceed for 15 minutes at 37° C. An antibody to phosphotyrosine (UBI) is then added, followed by a secondary enzyme-conjugated antibody, alkaline phosphatase-labelled goat anti-mouse IgG (Bio-Rad). The activity of the bound enzyme is measured via an amplified detection system (Gibco-BRL). Inhibition data are analyzed using the sigmoidal dose-response (variable slope) equation in GraphPad Prism.
On the technique in general: In an ELISA, binding on a coated surface is turned into a signal by an enzyme label.

The target in assay [3] is T3, MLK3 (Homo sapiens, UniProt Q16584).
T3 construct: 2 μg/ml of baculoviral GST-MLK3KD; GST (N); made in house
T3 sequence (Q16584 117-379 limits assumed, species assumed): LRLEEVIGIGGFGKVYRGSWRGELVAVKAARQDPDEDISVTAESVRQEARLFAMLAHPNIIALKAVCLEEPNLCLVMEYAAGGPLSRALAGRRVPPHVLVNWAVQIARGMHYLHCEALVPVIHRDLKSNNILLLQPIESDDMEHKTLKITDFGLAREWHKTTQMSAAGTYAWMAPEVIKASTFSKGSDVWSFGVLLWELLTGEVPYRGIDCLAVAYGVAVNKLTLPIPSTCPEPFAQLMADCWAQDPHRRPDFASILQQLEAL
In words: Inhibition of Mixed Lineage Kinase-3 (MLK3) activity. The conditions noted are these: 100 μM ATP; for IC50: values without % sign. As to the method: (§1) The kinase activity of MLK1 was assessed using the Millipore Multiscreen TCA “in-plate” format as described for protein kinase C (Pitt & Lee, J. Biomol. Screening, 1: 47-51, 1996). Briefly, each 50-μl assay mixture contained 20 mM Hepes, pH 7.2, 5 mM EGTA, 15 mM MgCl2, 25 mM β-glycerophosphate, 60 μM ATP, 0.25 μCi [γ-^32P]ATP, 0.1% BSA, 500 μ/ml myelin basic protein (UBI #13-104), 2% DMSO, 1 μM of test compound, and 1 μg/ml of baculoviral GST-MLK1KD. Samples were incubated for 15 min at 37° C. The reaction was stopped by adding ice cold 50% TCA and the proteins were allowed to precipitate for 30 min at 4° C. The plates were then washed with ice cold 25% TCA. Supermix scintillation cocktail was added, and the plates were allowed to equilibrate for 1-2 hours prior to counting using the Wallac MicroBeta 1450 PLUS scintillation counter.
(§2) Assays were performed using the Millipore Multiscreen plate format as described for MLK1. Briefly, each 50-μl assay mixture contained 20 mM Hepes, pH 7.2, 5 mM EGTA, 15 mM MgCl2, 25 mM β-glycerophosphate, 100 μM ATP, 0.25 μCi [γ-^32P]ATP, 0.1% BSA, 500 μg/ml myelin basic protein (UBI #13-104), 2% DMSO, various concentrations of test compound, and 2 μg/ml of baculoviral GST-MLK3KD. Sample were incubated for 15 min at 37° C. The reaction was stopped by adding ice cold 50% TCA and the proteins were allowed to precipitate for 30 min at 4° C. The plates were then washed with ice cold 25% TCA. Supermix scintillation cocktail was added, and the plates were allowed to equilibrate for 1-2 hours prior to counting.

Assay [4] concerns the target T4, MLK2 (Homo sapiens, UniProt Q02779).
T4 construct: fused on or other part: GST tag
The assay can be described thus: Inhibition of Mixed Lineage Kinase-2 (MLK2) activity. The conditions noted are these: 100 μM ATP; for IC50: values without % sign; for inhibition at 0.1 µM: 100 nM compound. As to the method: as §1
as §2, with “MLK1. Each” for “MLK1. Briefly, each”, “and 3” for “and 2”, “baculoviral GST-MLK2KDLZ. Samples” for “baculoviral GST-MLK3KD. Sample”, “15 min.” for “15 min”

T1 sequence (P80192 144-412 limits assumed, species assumed): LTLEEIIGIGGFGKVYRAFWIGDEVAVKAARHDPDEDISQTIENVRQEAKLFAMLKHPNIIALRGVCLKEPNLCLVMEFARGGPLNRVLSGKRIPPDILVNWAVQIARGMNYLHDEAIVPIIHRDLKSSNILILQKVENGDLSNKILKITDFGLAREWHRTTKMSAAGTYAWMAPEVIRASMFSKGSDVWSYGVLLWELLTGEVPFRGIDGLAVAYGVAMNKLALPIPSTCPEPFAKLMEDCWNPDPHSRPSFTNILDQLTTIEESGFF
T4 sequence (Q02779 98-440 limits assumed): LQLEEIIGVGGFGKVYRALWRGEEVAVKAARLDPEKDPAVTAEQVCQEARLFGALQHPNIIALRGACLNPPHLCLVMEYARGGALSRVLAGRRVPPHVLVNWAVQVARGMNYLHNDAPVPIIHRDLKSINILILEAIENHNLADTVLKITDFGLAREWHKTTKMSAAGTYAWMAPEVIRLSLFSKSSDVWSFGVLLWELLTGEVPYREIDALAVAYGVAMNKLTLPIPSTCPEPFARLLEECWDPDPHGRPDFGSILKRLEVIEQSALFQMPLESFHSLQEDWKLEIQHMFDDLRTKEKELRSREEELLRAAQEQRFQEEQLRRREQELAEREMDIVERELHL

By IC50 is commonly meant the concentration needed to halve the response being measured. A lower IC50 goes with inhibition by little substance. In the case of `CCOC(C)c1ccc2c(c1)c1c3c(c4c(c1n2CCCO)Cc1ccccc1-4)C(=O)NC3` (single isomer, unassigned) [Compound 12], the concentration for half-maximal inhibition (IC50) is 28 nM in assay [1], 240 nM in assay [2], 16 nM in assay [3] and 131 nM in assay [4].

Consider `O=C1NCc2c1c1c(c3c2c2ccccc2n3CCO)Cc2ccccc2-1` [A, reference compound], for which the results for the IC50 in assay [1], in assay [2] and in assay [3] were 22 nM, 107 nM and 8 nM, respectively. In assay [4], the inhibition at 0.1 µM is 39%.

For the compound `CC(C)CC(N)C(=O)OCCCn1c2ccccc2c2c3c(c4c(c21)Cc1ccccc1-4)C(=O)NC3` (centres unmarked) [C, reference compound], the figures for the inhibition at 0.1 µM in assay [1], in assay [3] (100 nM compound) and in assay [4] were 8%, 30% and 0%, respectively. Besides, in assay [2], the inhibition at 0.3 µM was 17%.

On to `CC[C@@H](C)OCc1ccc2c(c1)c1c3c(c4c(c1n2CCCO)Cc1ccccc1-4)C(=O)NC3` [Compound 5], for which the results for the IC50 in assay [1], in assay [2] and in assay [3] were 27 nM, 12 nM and 16 nM, respectively. For the same compound, the inhibition at 0.1 µM in assay [4] was 45%.

In the case of `CC[C@H](C)OCc1ccc2c(c1)c1c3c(c4c(c1n2CCCO)Cc1ccccc1-4)C(=O)NC3` [Compound 6], the results for the IC50 in assay [1], in assay [2] and in assay [3] were 38 nM, 19 nM and 19 nM, respectively. Moreover, in assay [4], the inhibition at 0.1 µM turned out to be 51%.

In the case of `CCCOCc1ccc2c(c1)c1c3c(c4c(c1n2CCCO)Cc1ccccc1-4)C(=O)NC3` [Compound 8], the concentration for half-maximal inhibition (IC50) in assay [1] is 19 nM; in assay [2] it was 13 nM; in assay [3], 13 nM. In assay [4], the inhibition at 0.1 µM was 76%.

Regarding `COC(C)c1ccc2c(c1)c1c3c(c4c(c1n2CCCO)Cc1ccccc1-4)C(=O)NC3` (centres unmarked) [Compound 13], the half-maximal inhibitory concentration (IC50) in assay [1] amounted to 20 nM; in assay [2], 73 nM; in assay [3] it was 26 nM. In assay [4], this compound displayed an inhibition at 0.1 µM of 62%.

With `CC(C)(C)OCc1ccc2c(c1)c1c3c(c4c(c1n2CCCO)Cc1ccccc1-4)C(=O)NC3` [Compound 17], the half-inhibitory concentration (IC50) turned out to be 35 nM in assay [1] and 11 nM in assay [2]. Moreover, the inhibition at 0.1 µM in assay [4] is 50%.

With `CC(C)OCc1ccc2c(c1)c1c3c(c4c(c1n2CCCOC(=O)C(N)CCCCN)Cc1ccccc1-4)C(=O)NC3` (centres unmarked) [Compound 19], the inhibition at 0.1 µM in assay [1] is 44%; in assay [4], 28%. Further, in assay [2], the inhibition at 0.3 µM turned out to be 60%.

Regarding `CC(C)OCc1ccc2c(c1)c1c3c(c4c(c1n2CCCOC(=O)CCN)Cc1ccccc1-4)C(=O)NC3` [Compound 20], the concentration for half-maximal inhibition (IC50) in assay [1] stood at 42 nM; in assay [2], 31 nM; in assay [3], 32 nM; in assay [4], 229 nM.

Turning to `CC(C)OCc1ccc2c(c1)c1c3c(c4c(c1n2CCCOC(=O)CN(C)C)Cc1ccccc1-4)C(=O)NC3` [Compound 22], the IC50 in assay [1] was determined as 74 nM; in assay [2] it was 18 nM; in assay [3] it was 28 nM; in assay [4], 170 nM.

Regarding `O=C1NCc2c1c1c(c3c2c2cc(CO)ccc2n3CCCO)Cc2ccccc2-1` [Compound 29], the values for the concentration for half-maximal inhibition (IC50) in assay [1], in assay [2] and in assay [3] were 9 nM, 208 nM and 5 nM, respectively. In addition, the inhibition at 0.1 µM in assay [4] was 64%.

With `CC(C)OCc1ccc2c(c1)c1c3c(c4c(c1n2CCCO)C(CO)c1ccccc1-4)C(=O)NC3` (centres unmarked) [Compound 40], the IC50 was found to be 21 nM in assay [1], 16 nM in assay [2] and 86 nM in assay [4].

Turning to `O=C1NCc2c1c1c(c3c2c2ccccc2n3CCCO)Cc2ccccc2-1` [Compound B, reference compound], the IC50 in assay [1] stood at 31 nM; in assay [2] it was 48 nM; in assay [3] it was 17 nM. In assay [4], this compound gave an inhibition at 0.1 µM of 46%.

Values taken from patent US6630500B2, “Selected fused pyrrolocarbazoles” (Cephalon, Inc., priority 2000, dated 2003).
